Measured values reported in article PMC5652740, “Inhibition of HIV-1 infection in humanized mice and metabolic stability of protein phosphatase-1-targeting small molecule 1E7-03” (Oncotarget, 2017).

Key:
HIV-1 env and gag mRNA = HIV-1 env and gag mRNA expression by real-time RT-PCR in infected CEM T cells; format: cell-based; details: 10 μM 1E7-03, DP1, DP3; 5 μM AZT, 3TC; in words
Procedure: For quantitative analysis of HIV-1 RNA, CEM T cells were infected with HIV-1-LUC-G virus. Cells were treated with 10 μM 1E7-03, 10 μM DP1, 10 μM DP3, 5 μM AZT or 5 μM 3TC and control cells were untreated or treated with DMSO. Total RNA was isolated using Trizol Reagent (Invitrogen, Carlsbad, CA) according to the manufacturer's protocol. Total RNA (100 ng) was reverse transcribed to cDNA using Superscript™ RT-PCR kit (Invitrogen, Carlsbad, CA). Hexamers and oligo-dT were used as primers. For real-time PCR analysis, cDNA was amplified using Roche LightCycler 480 (Roche Diagnostics) and SYBR Green1 Master mix (Roche Diagnostics). PCR was run for 45 cycles and each cycle included denaturation at 95°C for 10 seconds, annealing at 60°C for 10 seconds, and extension at 72°C for 10 seconds. Quantification of env and gag was carried using 18S RNA as a normalization standard. Quantification of housekeeping genes, β-actin and RSP13 was carried relative to 18S RNA. Mean Cp values were determined and ΔΔCt method was used to calculate relative expression levels. Unpaired t-test was used to test statistical significance.
The following primer sequences were used: env, forward - […], reverse-[…]; gag, forward- […], reverse- […]; β-actin, forward- […], reverse-[…]; RSP13, forward- […], reverse- […]; and 18SrRNA, forward- […], reverse- […].

[1] = Pharmacokinetic analysis in mice after i.p. injection; format: in vivo; details: male, BALB/cJ, ip, mouse plasma after i.p. 100 mg/kg DP1-07; for AUC(0-t) / MRT last / half-life / Tmax: parent and products DP1-07P1, DP1-07P2; for Cmax: parent and products DP1-07P1, DP1-07P2 (quantified with DP1 and DP3 calibration curves); for Tmax: mouse, plasma, 100 mg/kg
Procedure: The animal facilities and protocols were approved by Howard University Institutional Animal Care and Use Committee (IACUC). All experimental procedures were in accordance with the NIH Guidelines for the Care and Use of Laboratory Animals. BALB/cJ male mice (8 weeks old, 25–30 g) were purchased from Jackson Laboratory (Bar Harbor, ME, USA) and housed under pathogen-free conditions in HEPA-filtered cages and kept on a 12 h light/dark cycle. Compounds were administered to mice via intraperitoneal (i.p.) injection with maximum achievable doses of 30 mg/kg 1E7-03 (100 μl injection of 8 mM 1E7-03 in 80% DMSO/20% saline) and 100 mg/kg DP1-07 (100 μl injection of 100 mM DP1-07 in 40% propylene glycol/10% DMSO/50% saline). Blood samples were collected at different time points (15 min, 30 min, 1 hr, 3 hr, 6 hrs and 24 hrs) for each group (n=3 mice per group). For each sample, 20 μl of plasma was mixed with 80 μl cold acetone, and centrifuged at 13,000 rpm for 5 min. The supernatant was transferred to a clean test tube and dried in a SpeedVac concentrator. The residue was re-constituted in 50 μl of acetonitrile for LC-MS analysis. Calibration curves were prepared by spiking 1E7-03, DP1, DP3 and DP1-07 into the drug-free mouse plasma and subjected to similar sample extraction procedures. The plasma concentration–time profile of each analyte was constructed and pharmacokinetic parameters were determined by non-compartmental method using Phoenix WinNonlin Version 5.3 (Pharsight Corporation, Mountain View, CA).
A 10 μl aliquots from each sample were loaded to a LC-20AD nano HPLC system (Shimadzu Corporation, Columbia, MD, USA) coupled to LTQ XL Orbitrap mass spectrometer (Thermo Fisher Scientific) with the installed Xcalibur software (version 2.0.7, Thermo Fisher Scientific). Liquid chromatography was carried out on an in-house made nano-HPLC column (Polymicro Technologies Inc., Phoenix, AZ, USA) packed with reverse phase PolySulfoethyl A, 5μM, 200 Å (PolyLC Inc., Columbia, MD, USA). Mobile phase A was 0.1% formic acid in water and mobile phase B - 0.1% formic acid in acetonitrile. The elution was performed at a flow rate of 600 nl/min over 40 min using a multisegment linear gradient of mobile phase B as follows: 0–6.02 min, 1% B; 6.02–6.11 min, 1–2% B; 6.11–20 min, 2−80% B; 20–25 min, 80% B; 25–30 min, 80–85% B; 30–31 min, […]; 31–40 min, 2% B (v/v). The Orbitrap was operated under data-dependent acquisition mode. The spray voltage, capillary temperature and capillary voltage were set to 2.0 kV, 200 °C, and 39.5 V, respectively. Full-scan mass spectra were acquired in Orbitrap over 150−1500 m/z with a resolution of 30 000, followed by MS^n scans by CID activation mode. The precursor ions were fragmented with collision energy of 18 with activation Q of 0.25 and an activation time of 30 ms. Dynamic exclusion was enabled with a repeat count of 2, a repeat duration of 15 s, exclusion duration of 20 s, an exclusion list size of 50. The mass spectrometer was also operated in NL scan of m/z 18.01, 45.05, 71.03 and 72.02 and MRM mode. The MRM transitions were controlled by a segmented program in order to short the scan cycle and increase sensitivity.

[2] = target: T1, Recombinant PP1 (human PP1α residues 7–300) (Homo sapiens, UniProt P62136); test: Surface plasmon resonance direct binding to immobilized PP1; details: SPR; for PP1 WT KD (M): 1:1 binding model, 25°C
T1 construct: human PP1α (residues 7–300); His; made in house; host or cells: BL21 (DE3) Escherichia coli, co-expressed with GroEL/GroES chaperones
Procedure: PP1 was purified as previously described. BL21 (DE3) Escherichia coli cells (Invitrogen, Carlsbad, CA, USA) were -transformed with a vector expressing human PP1α (residues 7–300) and pGR07, which expresses GroEL/[…] chaperones (both gifts from Dr Mathieu Bollen and Monique Beullens, KU Leuven, Belgium). The cells were grown in media supplemented with 1 mM MnCl2 at 30°C to an A600 =0.5. Arabinose (2 g per L) was added to induce expression of the GroEL/GroES chaperones. When A600 =1 was reached, the cells were transferred to 10°C and PP1 expression was induced with 0.1 mM Isopropyl β-D-1-thiogalactopyranoside for 20 hrs. Harvested cells were lysed using sonication in a solution containing in 50 mM Tris-HCl (pH 8.0), 5 mM imidazole, 700 mM NaCl, 1 mM MnCl2, 0.1% Triton X-100 (v/v) and protease inhibitors. His-tagged PP1 was purified using a Ni-NTA IMAC column (Qiagen, Valencia, CA, USA). Purified PP1 was dialyzed and stored at −70°C in 50 mM Tris-HCl (pH 8.0), 5 mM imidazole, 700 mM NaCl and 1 mM MnCl2. PP1 activity was then assayed as previously described.
The SPR measurements were conducted on Biacore T200 instrument (GE Healthcare, Piscataway, NJ) at 25°C. Recombinant PP1 was immobilized on a CM5 chip by amine coupling (GE Healthcare). PP1 (200 nM) was captured on flow cell 2 in 10 mM acetate buffer, pH 5.0, supplemented with 2 mM MnCl2. […] Flow cell 1 was used as a reference surface to subtract background signal. Also injections of the buffer alone were used to provide double reference subtraction. […] For binding and kinetics experiments, all compounds were diluted in the running buffer, at 40 μM, 20 μM, 10 μM, 5 μM, 2.5 μM, 1.25 μM and 0 μM and then passed over the two flow cells at a flow rate of 100 μl/min for 60 sec. The number of response units was recorded after the subtraction of the reference flow cell's value (Fc2-1). Two repetitions were performed for each injection. Data were analyzed using the BiaEvaluation software of Biacore with a 1:1 binding model. […] All the small molecular weight compounds were used at 1 μM.

AUC(0-t) [1] [µM·h] | MRT last [1] [h] | half-life [1] [h] | Cmax [1] [µM] | Tmax [1] [h] | Compound | HIV-1 env mRNA expression (HIV-1 env and gag mRNA) | HIV-1 gag mRNA expression (HIV-1 env and gag mRNA) | other results
 |  |  |  |  | Nc1ccn([C@@H]2CS[C@H](CO)O2)c(=O)n1 [3TC, lamivudine, reference compound] | strong inhibition | strong inhibition | 
 |  |  |  |  | Cc1cn([C@H]2C[C@H](N=[N+]=[N-])[C@@H](CO)O2)c(=O)[nH]c1=O [AZT, azidothymidine, reference compound] | strong inhibition | strong inhibition | 
124 | 10.5 | 13.4 | 7.54 | 6 | COc1ccc(/C=C2\CCCc3c2nc2ccccc2c3C(=O)OC(C)C(=O)O)cc1OC (centres unmarked) [DP1-07P1] |  |  | 
288 | 8.86 | 4.66 | 23.7 | 6 | COc1ccc(/C=C2\CCCc3c2nc2ccccc2c3C(=O)O)cc1OC [DP1-07P2] |  |  | 
 |  |  |  |  | CC[C@H](C)[C@H](NC(=O)[C@H](Cc1ccccc1)NC(=O)[C@H](CS)NC(=O)[C@@H](NC(=O)[C@H](CCC(N)=O)NC(=O)[C@H](CS)NC(=O)[C@H](Cc1c[nH]cn1)NC(=O)[C@H](Cc1ccccc1)NC(=O)[C@H](CS)NC(=O)[C@H](CS)NC(=O)[C@H](CCCCN)NC(=O)[C@H](CCCCN)NC(=O)[C@H](CCCNC(=N)N)NC(=O)[C@H](CC(C)C)NC(=O)[C@@H]1CCCN1C(=O)[C@H](CO)NC(=O)[C@H](CO)NC(=O)[C@@H]1CCCN1C(=O)[C@H](Cc1ccccc1)NC(=O)[C@H](CCCCN)NC(=O)[C@H](Cc1ccc(O)cc1)NC(=O)[C@@H]1CCCN1C(=O)[C@H](COP(=O)(O)O)NC(=O)[C@H](CCCNC(=N)N)NC(=O)[C@@H]1CCCN1C(=O)[C@@H](NC(=O)[C@@H](N)Cc1c[nH]cn1)[C@@H](C)CC)C(C)C)C(=O)N[C@H](C(=O)N[C@@H](CCCCN)C(=O)O)[C@@H](C)O [pRb-Tat, reference compound] |  |  | times higher binding ability than 1E7-03, DP1 and DP3 [2]: 20-40 times
 |  |  |  |  | pRb-Tat mutant: mutant pRb-Tat peptide with QACA mutation in the RVxF motif (HIPRSPYKFPSSPLRKKCCFHCQACAITK) [reference compound] |  |  | PP1 WT KD (M) [2]: No binding; PP1 WT KD (M) ([2]; listed as mutant pRb-Tat): did not bind
